Test results reported in the supplement of paper PMC13380429.

Columns and labels:
Conditions in all cases: 72 h
Caco-2 [1] = assay: relative viability EC50 (midpoint between 100% and the lowest measured viability); higher = less toxic
HepG2 [2] = assay: as above
U2OS [3] = assay: as above
Calu-3 [4] = assay: as above
Vero E6 [5] = assay: as above
Caco-2 [6] = assay: drug sensitivity score (DSS) for viability; higher = more toxic; extreme values may be limits of the assay
HepG2 [7] = assay: as above
U2OS [8] = assay: as above
Calu-3 [9] = assay: as above
Vero E6 [10] = assay: as above
Caco-2 [11] = assay: cell viability relative to DMSO; higher = less toxic
HepG2 [12] = assay: as above
U2OS [13] = assay: as above
Calu-3 [14] = assay: as above
Vero E6 [15] = assay: as above

Structure (SMILES) | relative viability EC50 (Caco-2 [1]) | relative viability EC50 (HepG2 [2]) | relative viability EC50 (U2OS [3]) | relative viability EC50 (Calu-3 [4]) | relative viability EC50 (Vero E6 [5]) | drug sensitivity score (Caco-2 [6]) | drug sensitivity score (HepG2 [7]) | drug sensitivity score (U2OS [8]) | drug sensitivity score (Calu-3 [9]) | drug sensitivity score (Vero E6 [10]) | cell viability (Caco-2 [11]; 1 nM) | cell viability (Caco-2 [11]; 10 nM) | cell viability (Caco-2 [11]; 100 nM) | cell viability (Caco-2 [11]; 1000 nM) | cell viability (Caco-2 [11]; 10000 nM) | cell viability (HepG2 [12]; 1 nM) | cell viability (HepG2 [12]; 10 nM) | cell viability (HepG2 [12]; 100 nM) | cell viability (HepG2 [12]; 1000 nM) | cell viability (HepG2 [12]; 10000 nM) | cell viability (U2OS [13]; 1 nM) | cell viability (U2OS [13]; 10 nM) | cell viability (U2OS [13]; 100 nM) | cell viability (U2OS [13]; 1000 nM) | cell viability (U2OS [13]; 10000 nM) | cell viability (Calu-3 [14]; 1 nM) | cell viability (Calu-3 [14]; 10 nM) | cell viability (Calu-3 [14]; 100 nM) | cell viability (Calu-3 [14]; 1000 nM) | cell viability (Calu-3 [14]; 10000 nM) | cell viability (Vero E6 [15]; 1 nM) | cell viability (Vero E6 [15]; 10 nM) | cell viability (Vero E6 [15]; 100 nM) | cell viability (Vero E6 [15]; 1000 nM) | cell viability (Vero E6 [15]; 10000 nM)
N#Cc1ccc(NCCNCC(=O)N2CCC[C@H]2C#N)nc1 [NVP-DPP728] | > 10 µM | > 10 µM | > 10 µM | > 10 µM | > 10 µM | 0 | 0 | 0 | 0 | 0 | 96.6% | 100% | 97.1% | 106% | 104% | 112% | 98.6% | 102% | 97.3% | 106% | 96.2% | 98.3% | 101% | 102% | 99.4% | 101% | 92.1% | 96.5% | 104% | 110% | 97.5% | 97.8% | 90.3% | 91.6% | 104%
c1ccc2c(c1)OC[C@H](CNCCCOc1ccc3c(c1)OCO3)O2 [osemozotan] | > 10 µM | > 10 µM | > 10 µM | > 10 µM | > 10 µM | 0 | 0 | 0 | 0 | 0 | 90.5% | 108% | 101% | 96.5% | 114% | 99.1% | 105% | 112% | 97% | 106% | 96.9% | 99.2% | 96.9% | 101% | 94.2% | 94% | 103% | 109% | 108% | 95.9% | 106% | 104% | 103% | 85.3% | 100%
COC(=O)c1ccc(N2CCN(C)CC2)c(NC(=O)c2cccc(OC)c2)c1 [WDR5-0103] | > 10 µM | > 10 µM | > 10 µM | > 10 µM | > 10 µM | 0 | 0 | 0 | 0 | 0 | 88.8% | 97.5% | 91.7% | 99.9% | 89.8% | 102% | 114% | 85.5% | 112% | 102% | 98.5% | 94.8% | 96.8% | 95.5% | 101% | 98.9% | 93.4% | 99.5% | 97.4% | 97.8% | 94.6% | 98.2% | 94.2% | 102% | 103%
CC(C)c1ccc2oc3nc(N)c(C(=O)O)cc3c(=O)c2c1 [amlexanox] | > 10 µM | > 10 µM | > 10 µM | > 10 µM | > 10 µM | 0 | 0 | 0 | 0 | 0 | 94% | 95.9% | 99.8% | 89.8% | 108% | 96.7% | 101% | 99.9% | 109% | 113% | 97.1% | 94.3% | 100% | 96.4% | 99.8% | 92.3% | 87.4% | 104% | 101% | 99.5% | 96.6% | 99.8% | 98.4% | 102% | 106%
CCCN(CCC)[C@@H]1CCc2c(OC)cccc2[C@@H]1C [UH-232-(+)] | > 10 µM | > 10 µM | > 10 µM | > 10 µM | > 10 µM | 0 | 0 | 0 | 0 | 0 | 95.6% | 100% | 97.1% | 93.6% | 92.7% | 97.7% | 103% | 87.2% | 102% | 95.8% | 108% | 106% | 104% | 101% | 99.4% | 102% | 104% | 103% | 102% | 95% | 95.9% | 102% | 96.5% | 101% | 100%
C/N=C(/NC#N)NCCSCc1csc(NC(=N)N)n1 [tiotidine] | > 10 µM | > 10 µM | > 10 µM | > 10 µM | > 10 µM | 0 | 0 | 0 | 0 | 0 | 102% | 94.4% | 104% | 104% | 110% | 96.4% | 105% | 98.3% | 108% | 113% | 105% | 96% | 97.9% | 98.6% | 106% | 99.5% | 97.2% | 91.7% | 101% | 104% | 91.5% | 96.6% | 96.6% | 92.8% | 108%
CC(CCc1ccccc1)NCC(O)c1ccc(O)c(C(N)=O)c1 (stereo not given) [labetalol] | > 10 µM | > 10 µM | > 10 µM | > 10 µM | > 10 µM | 0 | 0 | 0 | 0 | 0 | 88.3% | 85.3% | 89.4% | 91.2% | 110% | 105% | 100% | 102% | 90.5% | 99.6% | 97.6% | 105% | 98.6% | 101% | 99.7% | 98.7% | 107% | 94.8% | 103% | 101% | 97.3% | 97.2% | 96.3% | 92% | 103%
Nc1ccc(-c2ccc3ncc4ccc(=O)n(-c5cccc(C(F)(F)F)c5)c4c3c2)cn1 [torin-2] | 0.0169 µM | 0.0594 µM | 0.0481 µM | 0.0111 µM | 0.0738 µM | 26.6 | 24.5 | 27.3 | 28.1 | 21 | 89.4% | 69.1% | 32.7% | 21.7% | 17.8% | 91.2% | 81.6% | 41.2% | 16.3% | 3.4% | 92.5% | 90.8% | 26.6% | 11% | 0.5% | 86.3% | 62.6% | 30.2% | 22.2% | 18.5% | 94.6% | 77.1% | 48.6% | 36% | 11.5%
CCOc1ccc(-c2ccc(Cn3c(CC(C)(C)C(=O)O)c(SC(C)(C)C)c4cc(OCc5ccc(C)cn5)ccc43)cc2)cn1 | > 10 µM | > 10 µM | > 10 µM | > 10 µM | > 10 µM | 0 | 1 | 1 | 0 | 1.3 | 98.4% | 98.8% | 105% | 103% | 88.9% | 104% | 104% | 102% | 86.2% | 95.7% | 100% | 106% | 96.6% | 97.8% | 78.2% | 107% | 105% | 111% | 112% | 99.9% | 98.6% | 95.4% | 90.1% | 94% | 76.1%
CC[C@]1(O)C[C@@H]2CN(CCc3c([nH]c4ccccc34)[C@@](C(=O)OC)(c3cc4c(cc3OC)N(C)[C@H]3[C@@](O)(C(=O)OC)[C@H](OC(C)=O)[C@]5(CC)C=CCN6CC[C@]43[C@@H]65)C2)C1 [Vinblastine (sulfate)] | 0.0105 µM | 0.0053 µM | 0.0071 µM | 0.0105 µM | 0.0688 µM | 24.1 | 27.8 | 31.8 | 22 | 20.6 | 90.3% | 56.8% | 44.4% | 43.9% | 27.7% | 99.3% | 43.9% | 34.7% | 32.5% | 34.8% | 96.1% | 48.1% | 24.9% | 19.6% | 16.8% | 87.5% | 64.9% | 50.5% | 41.6% | 34.3% | 100% | 91.3% | 48.8% | 30.1% | 18.1%
OC[C@H]1O[C@@H](c2ccc(Cl)c(Cc3ccc(O[C@H]4CCOC4)cc3)c2)[C@H](O)[C@@H](O)[C@@H]1O [empagliflozin] | > 10 µM | > 10 µM | > 10 µM | > 10 µM | > 10 µM | 0 | 0 | 0 | 0 | 0 | 95% | 97.3% | 102% | 94.7% | 104% | 99.4% | 109% | 91.9% | 109% | 117% | 98.6% | 92.3% | 103% | 96.7% | 96.4% | 87.9% | 110% | 114% | 98.7% | 101% | 90% | 103% | 95% | 94.9% | 106%
CC[N+](CC)(CC)CCC(O)(c1ccccc1)C1CCCCC1 (stereo not given) [tridihexethyl] | > 10 µM | > 10 µM | > 10 µM | > 10 µM | > 10 µM | 0 | 0 | 0 | 0 | 0 | 100% | 92.8% | 102% | 92.7% | 110% | 99.8% | 108% | 92.5% | 89% | 112% | 101% | 94.5% | 97.1% | 106% | 103% | 104% | 104% | 96.9% | 103% | 106% | 96.4% | 93.6% | 97.2% | 97.6% | 103%
